test system: Aphis craccivora; assay: Insecticidal activity against Aphis craccivora (cowpea aphid) assessed as mortality at 15.625 ug/mL measured after 1 day; assay type: functional; conditions: 24 h

For `O=[N+]([O-])/C=C1\NCCN1Cc1ccc(Cl)nc1`, the mortality at 15.625 µg/mL was 60%.

test system: Aphis craccivora; assay: Insecticidal activity against Aphis craccivora (cowpea aphid) assessed as mortality at 62.5 ug/mL measured after 1 day; assay type: functional; conditions: 24 h

With `O=[N+]([O-])/C=C1\NCCN1Cc1ccc(Cl)nc1` the mortality at 62.5 µg/mL was 94%.

test system: Aphis craccivora; assay: Insecticidal activity against Aphis craccivora (cowpea aphid) assessed as mortality at 125 ug/mL measured after 1 day; assay type: functional; conditions: 24 h

`CC(C)N1CC([N+](=O)[O-])=C2N(CC3CCCC3N2Cc2ccc(Cl)nc2)C1` (stereo not given) was tested, and the mortality at 125 µg/mL was 56%.

test system: Aphis craccivora; assay: Insecticidal activity against Aphis craccivora (cowpea aphid) assessed as mortality at 450 ug/mL measured after 1 day; assay type: functional; conditions: 24 h

Work on `CC(C)N1CC([N+](=O)[O-])=C2N(CC3CCCC3N2Cc2ccc(Cl)nc2)C1` (stereo not given) yielded a mortality at 450 µg/mL of 88%.

test system: Aphis craccivora; assay: Insecticidal activity against Aphis craccivora (cowpea aphid) assessed as mortality at 500 ug/mL measured after 1 day; assay type: functional; conditions: 24 h

Point of comparison: `O=[N+]([O-])/C=C1\NCC2CCCC2N1Cc1cccnc1` (stereo not given), mortality at 500 µg/mL 82%. Against it:
- CN1CC([N+](=O)[O-])=C2N(CC3CCCC3N2Cc2ccc(Cl)nc2)C1 (stereo not given) — lower, 54%
- O=[N+]([O-])/C=C1\NCC2CCCC2N1Cc1ccc(Cl)nc1 (stereo not given) — higher, 83%
- O=[N+]([O-])/C=C1\NC2CCCC2CN1Cc1ccc(Cl)nc1 (stereo not given) — lower, < 59%
- N#C/N=C1\NCC2CCCC2N1Cc1ccc(Cl)nc1 (stereo not given) — lower, 38%
- CC1CCC2CN/C(=C\[N+](=O)[O-])N(Cc3ccc(Cl)nc3)C12 (stereo not given) — lower, 51%
- CCN1CC([N+](=O)[O-])=C2N(CC3CCCC3N2Cc2ccc(Cl)nc2)C1 (stereo not given) — higher, 90%
- CCCN1CC([N+](=O)[O-])=C2N(CC3CCCC3N2Cc2ccc(Cl)nc2)C1 (stereo not given) — lower, 61%
- CCCCN1CC([N+](=O)[O-])=C2N(CC3CCCC3N2Cc2ccc(Cl)nc2)C1 (stereo not given) — lower, 32%
- O=[N+]([O-])C1=C2N(CC3CCCC3N2Cc2ccc(Cl)nc2)CN(CCO)C1 (stereo not given) — lower, 60%
- CS/C(=N\C#N)NCC1CCCC1NCc1ccc(Cl)nc1 (stereo not given) — lower, 34%
